Laboratory results from publication PMC10466336, “Chemical Probe for Imaging of Polo-like Kinase 4 and Centrioles” (JACS Au, 2023).

Experiments:
[1] = molecular target: T1, 6xHis-tagged Plk4 kinase domain (KD) (Homo sapiens, UniProt O00444); test: Estimation of fluorescence increase (fluorogenicity) with Plk4 kinase domain versus BSA; settings: mean of F(+Plk4KD)/F(+BSA) and standard deviation, N = 3; probe 3 µM, 1 h 37 °C
T1 construct: Plasmids encoding fragments of Plk4 kinase domain (2-275) with 6xHis-tag were cloned in pET system vectors; made in house; host or cells: E. coli BL21 gold (DE3)
T1 sequence (O00444 2-275): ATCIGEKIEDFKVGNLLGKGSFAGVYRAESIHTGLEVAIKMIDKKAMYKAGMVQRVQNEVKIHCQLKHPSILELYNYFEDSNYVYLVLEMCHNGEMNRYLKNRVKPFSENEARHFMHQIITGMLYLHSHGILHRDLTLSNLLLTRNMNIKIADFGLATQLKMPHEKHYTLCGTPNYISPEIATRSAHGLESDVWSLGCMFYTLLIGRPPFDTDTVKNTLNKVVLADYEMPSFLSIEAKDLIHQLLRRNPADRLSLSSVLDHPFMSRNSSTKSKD
Excerpt: (§1) Moreover, we substituted the basic acetyl-piperazine nitrogen in compounds (1 and 2a) with an acetyl-piperidine, to avoid probe protonation and accumulation in endolysosomal compartments (Figure S1A, B).[23] This yielded a second generation of centrinone-based probes (compounds 2b–d). These probes were characterized first in vitro by measuring their fluorogenicity in the presence of the 6xHis-tagged Plk4 kinase domain (KD) (Table 1). […] Next, we measured the binding affinities of the probes to the Plk4 kinase domain via a competition binding assay based on fluorescence polarization. […]
1.3.5 Estimation of fluorescence increase
The probes were analysed as described in Lukinavičius et al. 2014 1. Briefly, SiR650 or SiR595- […]
purified Plk4 kinase domain (10 µM in 20 mM Tris, 200 mM NaCl at pH 7.5) or to a bovine serum albumin (BSA) (Sigma) solution (0.2 mg/mL in 20 mM Tris, 200 mM NaCl at pH 7.5). Final concentration of the probe was 3 µM. The samples were incubated for 1 h at 37 °C, and fluorescence was measured in a 96-well plate (Greiner Bio-One) on a plate reader (TECAN Spark® 20M).
Fluorescence emission was recorded from 570 nm to 750 nm for SiR595 probes, and 630 nm to 750 nm for SiR650 while exciting at 550 nm ± 10 nm for SiR595 probes and at 610 ± 10 nm for SiR650 probes.
A fluorescence excitation scan was recorded by measuring the emission at 660 ± 10 nm for SiR595 and 720 ± 10 nm for SiR650 probes, while exciting from 500 nm to 640 nm for SiR595 probes and from […]

[2] = molecular target: T2, endogenous Plk4 in HeLa cells expressing Centrin1-GFP (Homo sapiens, UniProt O00444); test: Live- and fixed-cell confocal/STED imaging of endogenous Plk4; type: cell-based; settings: added to live cells in culture, 1 µM (Figure S1)
T2 construct: live cell imaging of endogenous Plk4; endogenous in cells; host or cells: HeLa cells stably expressing Centrin1-GFP
T2 sequence (O00444 1-970): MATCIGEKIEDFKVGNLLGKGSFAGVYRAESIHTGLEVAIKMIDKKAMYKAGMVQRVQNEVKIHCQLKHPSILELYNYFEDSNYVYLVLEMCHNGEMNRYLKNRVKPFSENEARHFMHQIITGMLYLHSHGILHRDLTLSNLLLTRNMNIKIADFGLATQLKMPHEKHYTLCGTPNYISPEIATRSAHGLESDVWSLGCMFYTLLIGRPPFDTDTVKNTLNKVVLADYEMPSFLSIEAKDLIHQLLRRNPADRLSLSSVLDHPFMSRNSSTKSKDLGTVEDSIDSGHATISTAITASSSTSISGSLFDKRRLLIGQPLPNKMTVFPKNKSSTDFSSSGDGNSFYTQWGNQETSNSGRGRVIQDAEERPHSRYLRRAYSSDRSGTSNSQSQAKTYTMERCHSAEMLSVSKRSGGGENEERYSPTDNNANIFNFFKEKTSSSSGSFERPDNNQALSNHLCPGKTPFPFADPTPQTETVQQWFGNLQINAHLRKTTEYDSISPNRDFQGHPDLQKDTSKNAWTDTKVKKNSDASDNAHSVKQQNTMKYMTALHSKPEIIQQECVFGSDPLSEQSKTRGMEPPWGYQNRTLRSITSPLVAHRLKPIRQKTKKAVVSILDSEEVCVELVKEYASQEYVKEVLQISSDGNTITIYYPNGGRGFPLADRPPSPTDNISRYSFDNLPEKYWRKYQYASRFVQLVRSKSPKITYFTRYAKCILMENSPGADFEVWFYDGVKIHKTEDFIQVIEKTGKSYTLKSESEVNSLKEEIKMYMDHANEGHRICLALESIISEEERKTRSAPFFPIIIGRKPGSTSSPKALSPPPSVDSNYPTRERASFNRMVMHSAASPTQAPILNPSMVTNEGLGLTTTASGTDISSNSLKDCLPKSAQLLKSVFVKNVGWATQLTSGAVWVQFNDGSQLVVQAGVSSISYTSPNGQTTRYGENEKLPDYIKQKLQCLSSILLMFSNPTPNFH

Plk4 kinase domain = molecular target: T3, Plk4 kinase domain (Homo sapiens, UniProt O00444); test: Competition binding assay based on fluorescence polarization (tracer Alexa488-PEG-N-centrinone); settings: Alexa488-PEG-N-centrinone 1 nM, Plk4-KD 5 nM
T3 construct: Plasmids encoding fragments of Plk4 kinase domain (2-275) with 6xHis-tag were cloned in pET system vectors; made in house; host or cells: E. coli BL21 gold (DE3)
T3 sequence (O00444 2-275): T1 sequence (O00444 2-275)
Excerpt: as §1, with “This yielded a second generation of centrinone-based probes (compounds 2b–d).” left out
1.3.6 Fluorescence Polarization assay & competition assay […]
plate (Greiner Bio-One). Upon mixture of protein and ligand, the plate was incubated for 30 min at room temperature followed by fluorescence polarization measurements by a plate reader (TECAN Spark® 20M) using 485 nm as excitation wavelength (bandwidth 20 nm) and 535 nm as emission wavelength (bandwidth 25 nm). The obtained fluorescence polarization values from each well were plotted against the concentration of the protein. The apparent Kd values were obtained by fitting the curve to the […]
FP = FP + FPmax ― FPmin (C + C + K ― (C + C + K )2 ― 4C C ) […]
protein should be around the Kd of the tracer to ensure that enough free protein that can bind the […]
competitor, and enough signal change coming from binding and unbinding of the tracer. The solution of the tracer and protein was titrated with increasing amounts of competitors, in our case SiR650- and […]
The mixture was then incubated for an hour at room temperature and the FP was then measured on a plate reader using the same conditions as mentioned before. From the obtained FP values, we have calculated the amount of free protein in the solution for each concentration of competitor using the equation of the single-site binding isotherm:
Pfree = Kd_tracer FP ― FP
Where Pfree is concentration of free protein, Kd tracer represents the previously determined binding affinity

[3] = test system: HeLa cells expressing Centrin1-GFP; test: Centriole phenotypic scoring (number of Centrin1-GFP foci); type: cell-based, human; settings: 24 h incubation, scoring of Centrin1-GFP foci
Excerpt: Having established that SiR595-centrinone (2d) can successfully label overexpressed Plk4, we wanted to investigate whether it also marks endogenous Plk4. […] In contrast, partial Plk4 inhibition leads to increased levels of centriolar Plk4 due to partial interference with protein degradation mediated by autophosphorylation, overall resulting in centriole overamplification.[8] Therefore, both under-duplication and overamplification of centrioles can be used as a proxy for SiR595-centrinone binding to endogenous Plk4. […] We conclude that the failure of SiR595-centrinone (2d) to detect endogenous Plk4 is due to the low binding affinity of the probe in combination with low protein levels. […] In the second step, the Plk4-bound molecule is specifically reacted with an appropriate fluorogenic tetrazine dye.[27]−[33] This strategy was applied previously successfully to label various protein targets in live and fixed cells,[30],[32],[34]−[38] and we reasoned that a smaller and potentially more permeable Cen-TCO (3) derivative would likewise enable more efficient labeling of endogenous Plk4.
We conjugated trans-cyclooctene to the previously obtained compound (4) to obtain Cen-TCO (3) using the synthetic route outlined in Scheme S2. The resulting Cen-TCO (3) reacted with an appropriate tetrazine, such as SiR650-TetH (4a) (Figure S4A). The reaction was followed by LC-MS, and the data confirmed quantitative conversion of Cen-TCO (3) to the appropriate cycloaddition product Cen-Click-SiR650 (Figure S4A, D). […] To assess the phenotype caused by Cen-TCO (3), we incubated HeLa cells expressing Centrin1-GFP with different concentrations of Cen-TCO (3) for 24 h, followed by scoring of Centrin1-GFP foci numbers (Figure S5B). […] Despite the high unspecific background signal, a clear focus could be detected at centrioles (Figure 4B). […] The fwhm of the circular signal in this case was 368 ± 26 (N = 6) (Figure S7B), which corresponds to the size measured with overexpressed GFP-Plk4(K41M) (see Figure 3D), and approximately that of the torus region surrounding the centriole.[40] […]

Row | SMILES | FPIk4/FBSA [1] | unspecific labeling in live human cells [2] | Kd (Plk4 kinase domain) [nM] | concentration causing the centriole under-duplication phenotype [3] [nM]
1 | COc1c(Nc2cc(C)[nH]n2)nc(Sc2ccc(S(=O)(=O)Cc3cccc([N+](=O)[O-])c3F)cc2F)nc1N1CCN(CC(=O)NCCOCCNC(=O)c2ccc(C(=O)O)c(C3=C4C=CC(=N)C=C4[Si](C)(C)c4cc(N)ccc43)c2)CC1 [2a] | 10 ± 1 | high unspecific labeling | 26 ± 3 | –
2 | COc1c(Nc2cc(C)[nH]n2)nc(Sc2ccc(S(=O)(=O)Cc3cccc([N+](=O)[O-])c3F)cc2F)nc1N1CCC(CC(=O)NCCOCCNC(=O)c2ccc(C(=O)O)c(C3=C4C=CC(=N)C=C4[Si](C)(C)c4cc(N)ccc43)c2)CC1 [2b] | 23 ± 1 | – | 14 ± 4 | –
3 | COc1c(Nc2cc(C)[nH]n2)nc(Sc2ccc(S(=O)(=O)Cc3cccc([N+](=O)[O-])c3F)cc2F)nc1N1CCC(CC(=O)NCCCCNC(=O)c2ccc(C(=O)O)c(C3=C4C=CC(=N)C=C4[Si](C)(C)c4cc(N)ccc43)c2)CC1 [2c] | 14 ± 2 | – | 23 ± 6 | –
4 | COc1c(Nc2cc(C)[nH]n2)nc(Sc2ccc(S(=O)(=O)Cc3cccc([N+](=O)[O-])c3F)cc2F)nc1N1CCOCC1 [centrinone, reference compound] | – | – | – | ≥ 250
5 | COc1c(Nc2cc(C)[nH]n2)nc(Sc2ccc(S(=O)(=O)Cc3cccc([N+](=O)[O-])c3F)cc2F)nc1N1CCN(CC(=O)NCCOCCNC(=O)c2ccc(C(=O)[O-])c(C3=C4C=CC(=[N+](C)C)C=C4[Si](C)(C)c4cc(N(C)C)ccc43)c2)CC1 [compound 1] | 4 ± 1 | high unspecific labeling | 48 ± 6 | –
